How the values were obtained:
Assay in all cases: Test F preemergence/postemergence greenhouse plant response rating 0 to 100
green foxtail = type: in vivo, Setaria viridis; details: PREEMERGENCE, 0 to 100 scale
From the text: (§1) Compounds evaluated in this test were formulated in a non-phytoxic solvent and applied to the soil surface before plant seedlings emerged (preemergence application) and to plants that were in the one-to-four leaf stage (postemergence application). A sandy loam soil was used for the preemergence test while a mixture of sandy loam soil and greenhouse potting mix in a 60:40 ratio was used for the postemergence test. Test compounds were applied within approximately one day after planting seeds for the preemergence test. Plantings of these crops and weed species were adjusted to produce plants of appropriate size for the postemergence test. All plant species were grown using normal greenhouse practices. Crop and weed species include winter barley (Hordeum vulgare cv. ‘Igri’), blackgrass (Alopecurus myosuroides), chickweed (Stellaria media), downy brome (Bromus tectorum), field violet (Viola arvensis), galium (Galium aparine), green foxtail (Setaria viridis), kochia (Kochia scoparia), lambsquarters (Chenopodium album), speedwell (Veronica persica), rape (Brassica napus), ryegrass (Lolium multiflorum), sugar beet (Beta vulgaris cv. ‘USl’), sunflower (Helianthus annuus cv. ‘Russian Giant’), spring wheat (Triticum aestivum cv. ‘ERA’), winter wheat (Triticum aestivum cv. ‘Talent’), wild buckwheat (Polygonum convolvulus), wild mustard (Sinapis arvensis), wild oat (Avena fatua), and wild radish (Raphanus raphanistrum). Blackgrass, galium and wild oat were treated at two growth stages. […] Treated plants and untreated controls were maintained in a greenhouse for approximately 21 to 28 days, after which all treated plants were compared to untreated controls and visually evaluated. […] A dash response (-) means no test result.

lambsquarters = type: in vivo, Chenopodium album; details: 0 to 100 scale
From the text: as §1

speedwell = type: in vivo, Veronica persica; details: 0 to 100 scale
From the text: as §1

ryegrass = type: in vivo, Lolium multiflorum; details: 0 to 100 scale
From the text: as §1

spring wheat = type: in vivo, Triticum aestivum cv. ‘ERA’; details: 0 to 100 scale
From the text: as §1

winter wheat = type: in vivo, Triticum aestivum cv. ‘Talent’; details: 0 to 100 scale
From the text: as §1

wild oat = type: in vivo, Avena fatua; details: 0 to 100 scale
From the text: as §1

wild radish = type: in vivo, Raphanus raphanistrum; details: 0 to 100 scale
From the text: as §1

C#CCOc1cc(-c2nn3c(c2Br)CCCC3)c(F)cc1Cl [Compound 26]
Green foxtail plant response rating (green foxtail; Rate 125 g/ha): 100 | Green foxtail plant response rating (green foxtail; Rate 250 g/ha): 100 | Lambsquarters plant response rating (lambsquarters; POSTEMERGENCE, Rate 8 g/ha): 50 | Lambsquarters plant response rating (lambsquarters; POSTEMERGENCE, Rate 16 g/ha): 50 | Lambsquarters plant response rating (lambsquarters; POSTEMERGENCE, Rate 32 g/ha): 100 | Lambsquarters plant response rating (lambsquarters; POSTEMERGENCE, Rate 64 g/ha): 100 | Lambsquarters plant response rating (lambsquarters; POSTEMERGENCE, Rate 125 g/ha): 100 | Lambsquarters plant response rating (lambsquarters; POSTEMERGENCE, Rate 250 g/ha): 100 | Lambsquarters plant response rating (lambsquarters; PREEMERGENCE, Rate 4 g/ha): 0 | Lambsquarters plant response rating (lambsquarters; PREEMERGENCE, Rate 8 g/ha): 70 | Lambsquarters plant response rating (lambsquarters; PREEMERGENCE, Rate 16 g/ha): 80 | Lambsquarters plant response rating (lambsquarters; PREEMERGENCE, Rate 32 g/ha): 100 | Lambsquarters plant response rating (lambsquarters; PREEMERGENCE, Rate 64 g/ha): 100 | Lambsquarters plant response rating (lambsquarters; PREEMERGENCE, Rate 125 g/ha): 100 | Persn Speedwell plant response rating (speedwell; POSTEMERGENCE, Rate 4 g/ha): 60 | Persn Speedwell plant response rating (speedwell; POSTEMERGENCE, Rate 8 g/ha): 60 | Persn Speedwell plant response rating (speedwell; POSTEMERGENCE, Rate 32 g/ha): 100 | Persn Speedwell plant response rating (speedwell; POSTEMERGENCE, Rate 64 g/ha): 100 | Persn Speedwell plant response rating (speedwell; POSTEMERGENCE, Rate 125 g/ha): 100 | Persn Speedwell plant response rating (speedwell; POSTEMERGENCE, Rate 250 g/ha): 100 | Persn Speedwell plant response rating (speedwell; PREEMERGENCE, Rate 4 g/ha): 50 | Persn Speedwell plant response rating (speedwell; PREEMERGENCE, Rate 8 g/ha): 80 | Persn Speedwell plant response rating (speedwell; PREEMERGENCE, Rate 16 g/ha): 100 | Persn Speedwell plant response rating (speedwell; PREEMERGENCE, Rate 32 g/ha): 100 | Persn Speedwell plant response rating (speedwell; PREEMERGENCE, Rate 64 g/ha): 100 | Persn Speedwell plant response rating (speedwell; PREEMERGENCE, Rate 125 g/ha): 100 | Persn Speedwell plant response rating (speedwell; PREEMERGENCE, Rate 250 g/ha): 100 | Ryegrass plant response rating (ryegrass; POSTEMERGENCE, Rate 4 g/ha): 0 | Ryegrass plant response rating (ryegrass; POSTEMERGENCE, Rate 8 g/ha): 0 | Ryegrass plant response rating (ryegrass; POSTEMERGENCE, Rate 16 g/ha): 0 | Ryegrass plant response rating (ryegrass; POSTEMERGENCE, Rate 32 g/ha): 5 | Ryegrass plant response rating (ryegrass; POSTEMERGENCE, Rate 64 g/ha): 20 | Ryegrass plant response rating (ryegrass; POSTEMERGENCE, Rate 125 g/ha): 30 | Ryegrass plant response rating (ryegrass; POSTEMERGENCE, Rate 250 g/ha): 55 | Ryegrass plant response rating (ryegrass; PREEMERGENCE, Rate 4 g/ha): 0 | Ryegrass plant response rating (ryegrass; PREEMERGENCE, Rate 8 g/ha): 0 | Ryegrass plant response rating (ryegrass; PREEMERGENCE, Rate 16 g/ha): 0 | Ryegrass plant response rating (ryegrass; PREEMERGENCE, Rate 32 g/ha): 20 | Ryegrass plant response rating (ryegrass; PREEMERGENCE, Rate 64 g/ha): 40 | Ryegrass plant response rating (ryegrass; PREEMERGENCE, Rate 125 g/ha): 60 | Ryegrass plant response rating (ryegrass; PREEMERGENCE, Rate 250 g/ha): 80 | Wheat (Spring) plant response rating (spring wheat; POSTEMERGENCE, Rate 4 g/ha): 0 | Wheat (Spring) plant response rating (spring wheat; POSTEMERGENCE, Rate 8 g/ha): 0 | Wheat (Spring) plant response rating (spring wheat; POSTEMERGENCE, Rate 16 g/ha): 0 | Wheat (Spring) plant response rating (spring wheat; POSTEMERGENCE, Rate 32 g/ha): 15 | Wheat (Spring) plant response rating (spring wheat; POSTEMERGENCE, Rate 64 g/ha): 15 | Wheat (Spring) plant response rating (spring wheat; POSTEMERGENCE, Rate 125 g/ha): 15 | Wheat (Spring) plant response rating (spring wheat; POSTEMERGENCE, Rate 250 g/ha): 20 | Wheat (Spring) plant response rating (spring wheat; PREEMERGENCE, Rate 4 g/ha): 0 | Wheat (Spring) plant response rating (spring wheat; PREEMERGENCE, Rate 8 g/ha): 0 | Wheat (Spring) plant response rating (spring wheat; PREEMERGENCE, Rate 16 g/ha): 0 | Wheat (Spring) plant response rating (spring wheat; PREEMERGENCE, Rate 32 g/ha): 0 | Wheat (Spring) plant response rating (spring wheat; PREEMERGENCE, Rate 64 g/ha): 0 | Wheat (Spring) plant response rating (spring wheat; PREEMERGENCE, Rate 125 g/ha): 15 | Wheat (Spring) plant response rating (spring wheat; PREEMERGENCE, Rate 250 g/ha): 20 | Wheat (Winter) plant response rating (winter wheat; POSTEMERGENCE, Rate 4 g/ha): 0 | Wheat (Winter) plant response rating (winter wheat; POSTEMERGENCE, Rate 8 g/ha): 0 | Wheat (Winter) plant response rating (winter wheat; POSTEMERGENCE, Rate 16 g/ha): 0 | Wheat (Winter) plant response rating (winter wheat; POSTEMERGENCE, Rate 32 g/ha): 15 | Wheat (Winter) plant response rating (winter wheat; POSTEMERGENCE, Rate 64 g/ha): 20 | Wheat (Winter) plant response rating (winter wheat; POSTEMERGENCE, Rate 125 g/ha): 30 | Wheat (Winter) plant response rating (winter wheat; POSTEMERGENCE, Rate 250 g/ha): 20 | Wheat (Winter) plant response rating (winter wheat; PREEMERGENCE, Rate 4 g/ha): 0 | Wheat (Winter) plant response rating (winter wheat; PREEMERGENCE, Rate 8 g/ha): 0 | Wheat (Winter) plant response rating (winter wheat; PREEMERGENCE, Rate 16 g/ha): 0 | Wheat (Winter) plant response rating (winter wheat; PREEMERGENCE, Rate 32 g/ha): 0 | Wheat (Winter) plant response rating (winter wheat; PREEMERGENCE, Rate 64 g/ha): 0 | Wheat (Winter) plant response rating (winter wheat; PREEMERGENCE, Rate 125 g/ha): 10 | Wheat (Winter) plant response rating (winter wheat; PREEMERGENCE, Rate 250 g/ha): 20 | Wild oat (1) plant response rating (wild oat; POSTEMERGENCE, Rate 4 g/ha, stage (1) two to three leaves): 0 | Wild oat (2) plant response rating (wild oat; POSTEMERGENCE, Rate 4 g/ha, stage (2) approximately four leaves or initial tillering): 0 | Wild oat (1) plant response rating (wild oat; POSTEMERGENCE, Rate 8 g/ha, stage (1) two to three leaves): 0 | Wild oat (2) plant response rating (wild oat; POSTEMERGENCE, Rate 8 g/ha, stage (2) approximately four leaves or initial tillering): 0 | Wild oat (1) plant response rating (wild oat; POSTEMERGENCE, Rate 16 g/ha, stage (1) two to three leaves): 0 | Wild oat (2) plant response rating (wild oat; POSTEMERGENCE, Rate 16 g/ha, stage (2) approximately four leaves or initial tillering): 0 | Wild oat (1) plant response rating (wild oat; POSTEMERGENCE, Rate 32 g/ha, stage (1) two to three leaves): 25 | Wild oat (2) plant response rating (wild oat; POSTEMERGENCE, Rate 32 g/ha, stage (2) approximately four leaves or initial tillering): 15 | Wild oat (1) plant response rating (wild oat; POSTEMERGENCE, Rate 64 g/ha, stage (1) two to three leaves): 40 | Wild oat (2) plant response rating (wild oat; POSTEMERGENCE, Rate 64 g/ha, stage (2) approximately four leaves or initial tillering): 15 | Wild oat (1) plant response rating (wild oat; POSTEMERGENCE, Rate 125 g/ha, stage (1) two to three leaves): 45 | Wild oat (2) plant response rating (wild oat; POSTEMERGENCE, Rate 125 g/ha, stage (2) approximately four leaves or initial tillering): 20 | Wild oat (1) plant response rating (wild oat; POSTEMERGENCE, Rate 250 g/ha, stage (1) two to three leaves): 50 | Wild oat (2) plant response rating (wild oat; POSTEMERGENCE, Rate 250 g/ha, stage (2) approximately four leaves or initial tillering): 30 | Wild oat (1) plant response rating (wild oat; PREEMERGENCE, Rate 4 g/ha, Wild oat (1)): 0 | Wild oat (2) plant response rating (wild oat; PREEMERGENCE, Rate 4 g/ha, Wild oat (2)): 0 | Wild oat (1) plant response rating (wild oat; PREEMERGENCE, Rate 8 g/ha, Wild oat (1)): 0 | Wild oat (2) plant response rating (wild oat; PREEMERGENCE, Rate 8 g/ha, Wild oat (2)): 0 | Wild oat (1) plant response rating (wild oat; PREEMERGENCE, Rate 16 g/ha, Wild oat (1)): 0 | Wild oat (2) plant response rating (wild oat; PREEMERGENCE, Rate 16 g/ha, Wild oat (2)): 0 | Wild oat (1) plant response rating (wild oat; PREEMERGENCE, Rate 32 g/ha, Wild oat (1)): 0 | Wild oat (2) plant response rating (wild oat; PREEMERGENCE, Rate 32 g/ha, Wild oat (2)): 0 | Wild oat (1) plant response rating (wild oat; PREEMERGENCE, Rate 64 g/ha, Wild oat (1)): 10 | Wild oat (2) plant response rating (wild oat; PREEMERGENCE, Rate 64 g/ha, Wild oat (2)): 20 | Wild oat (1) plant response rating (wild oat; PREEMERGENCE, Rate 125 g/ha, Wild oat (1)): 20 | Wild oat (2) plant response rating (wild oat; PREEMERGENCE, Rate 125 g/ha, Wild oat (2)): 30 | Wild oat (1) plant response rating (wild oat; PREEMERGENCE, Rate 250 g/ha, Wild oat (1)): 30 | Wild oat (2) plant response rating (wild oat; PREEMERGENCE, Rate 250 g/ha, Wild oat (2)): 50 | Wild radish plant response rating (wild radish; POSTEMERGENCE, Rate 4 g/ha): 0 | Wild radish plant response rating (wild radish; POSTEMERGENCE, Rate 8 g/ha): 20 | Wild radish plant response rating (wild radish; POSTEMERGENCE, Rate 16 g/ha): 60 | Wild radish plant response rating (wild radish; POSTEMERGENCE, Rate 32 g/ha): 60 | Wild radish plant response rating (wild radish; POSTEMERGENCE, Rate 64 g/ha): 60 | Wild radish plant response rating (wild radish; POSTEMERGENCE, Rate 125 g/ha): 60 | Wild radish plant response rating (wild radish; POSTEMERGENCE, Rate 250 g/ha): 60 | Wild radish plant response rating (wild radish; PREEMERGENCE, Rate 4 g/ha): 0 | Wild radish plant response rating (wild radish; PREEMERGENCE, Rate 8 g/ha): 0 | Wild radish plant response rating (wild radish; PREEMERGENCE, Rate 16 g/ha): 0 | Wild radish plant response rating (wild radish; PREEMERGENCE, Rate 32 g/ha): 0 | Wild radish plant response rating (wild radish; PREEMERGENCE, Rate 64 g/ha): 40 | Wild radish plant response rating (wild radish; PREEMERGENCE, Rate 125 g/ha): 70 | Wild radish plant response rating (wild radish; PREEMERGENCE, Rate 250 g/ha): 100

From US6358885B1, “Substituted phenylheterocyclic herbicides” (Mississippi State University, priority 1992, dated 2002)
